Measurements: article PMC7029851, “Antibacterial activity of novel dual bacterial DNA type II topoisomerase inhibitors” (PLoS ONE, 2020)
“And” between values parts separate entries of the source, which are not always exact repeats. Equal values may be shown once. Read-outs that look alike come from different tables or passages of the source.

How the values were obtained:
[1] = molecular target: T1, S. aureus Topoisomerase IV (Staphylococcus aureus, UniProt P0C1U9); assay: S. aureus topoisomerase IV decatenation gel assay; assay type: biochemical
T1 construct: purchased Inspiralis (Norwich, UK)
Procedure: (§1) S. aureus and E. coli DNA gyrase supercoiling and topo IV decatenation assay kits, as well as human topoisomerase II decatenation assay kits, were provided by Inspiralis (Norwich, UK). Assays were performed according to the manufacturer’s instructions. The compounds were serially diluted (1:3 dilutions starting from a 300 μM final concentration) and assayed in a reaction mixture to obtain concentration-response curves in two different replicate experiments. The final concentration of DMSO in the assays was 1% (v/v). The reactions were terminated by the addition of 30 μl chloroform/isoamyl alcohol (26:1) and 30 μl Stop Dye (40% sucrose, 100 mM Tris HCl pH 7.5, 1 mM EDTA, 0.5 μg/ml bromophenol blue), after which the samples were loaded onto a 1.0% TAE ([…]) gel that was then run at 80 V for 2 hours. DNA bands were visualized by ethidium bromide staining the gel for 10 minutes, which was then destained for 10 minutes in water and analysed using gel documentation equipment (Syngene, Cambridge, UK). The DNA in each band was quantitated using Syngene Gene Tools software. Raw gel data (fluorescent band volumes) were converted by the software to percentages of the control (the fully supercoiled or decatenated DNA band). […] The global curve fit non-linear regression tool was used to calculate the IC50 values. The results are expressed as the average values obtained after calculating the IC50 from each replicate run.

[2] = molecular target: T2, E. coli Topoisomerase IV (Escherichia coli, UniProt P0AFI2); assay: E. coli topoisomerase IV decatenation gel assay; assay type: biochemical
T2 construct: purchased Inspiralis (Norwich, UK)
Procedure: as §1

[3] = tested on: S. pneumoniae ATCC 49619; assay: MIC, broth microdilution; assay type: cell-based; details: Streptococcus pneumoniae, ATCC49619; S. pneumoniae ATCC 49619, ciprofloxacin-susceptible
Procedure: (§2) MICs were determined by the broth microdilution method (the agar dilution method was used only for N. gonorrhoeae) according to CLSI guidelines.

[4] = tested on: P. aeruginosa ATCC 27853; assay: MIC, broth microdilution; assay type: cell-based; details: Pseudomonas aeruginosa, ATCC27853; P. aeruginosa ATCC 27853, ciprofloxacin-susceptible
Procedure: as §2

[5] = tested on: H. influenzae ATCC 49766; assay: MIC, broth microdilution; assay type: cell-based; details: Haemophilus influenzae, ATCC49766; H. influenzae ATCC 49766, ciprofloxacin-susceptible
Procedure: as §2

[6] = tested on: E. coli ATCC 25922; assay: MIC, broth microdilution; assay type: cell-based; details: Escherichia coli, ATCC25922; E. coli ATCC 25922, ciprofloxacin-susceptible
Procedure: as §2

[7] = tested on: K. pneumoniae ATCC 700603; assay: MIC, broth microdilution; assay type: cell-based; details: Klebsiella pneumoniae, ATCC700603; K. pneumoniae ATCC 700603, ciprofloxacin-susceptible
Procedure: as §2

[8] = tested on: S. aureus BAA-1720; assay: MIC, broth microdilution; assay type: cell-based; details: Staphylococcus aureus, BAA1720; S. aureus BAA-1720, ciprofloxacin-resistant
Procedure: as §2

[9] = tested on: E. faecalis ATCC 29212; assay: MIC, broth microdilution; assay type: cell-based; details: Enterococcus faecalis, ATCC29212; E. faecalis ATCC 29212, ciprofloxacin-susceptible
Procedure: as §2

[10] = tested on: E. coli TolC- mutant; assay: microbe, parasite or virus in culture; assay type: cell-based; details: Escherichia coli
Procedure: (§3) The bacterial reference strains used in this study were purchased from ATCC (American Type Culture Collection) via LGC Standards (Middlesex, UK). […] Clinical MDR isolates were provided by Aptuit, the IHMA Europa Sàrl repository (Epalinges, Switzerland) and the Statens Serum Institute (Copenhagen, Denmark).
as §2

[11] = molecular target: T3, S. aureus DNA gyrase (Staphylococcus aureus, UniProt P20831); assay: S. aureus DNA gyrase supercoiling gel assay; assay type: biochemical
T3 construct: purchased Inspiralis (Norwich, UK)
T3 sequence (P20831 whole entry): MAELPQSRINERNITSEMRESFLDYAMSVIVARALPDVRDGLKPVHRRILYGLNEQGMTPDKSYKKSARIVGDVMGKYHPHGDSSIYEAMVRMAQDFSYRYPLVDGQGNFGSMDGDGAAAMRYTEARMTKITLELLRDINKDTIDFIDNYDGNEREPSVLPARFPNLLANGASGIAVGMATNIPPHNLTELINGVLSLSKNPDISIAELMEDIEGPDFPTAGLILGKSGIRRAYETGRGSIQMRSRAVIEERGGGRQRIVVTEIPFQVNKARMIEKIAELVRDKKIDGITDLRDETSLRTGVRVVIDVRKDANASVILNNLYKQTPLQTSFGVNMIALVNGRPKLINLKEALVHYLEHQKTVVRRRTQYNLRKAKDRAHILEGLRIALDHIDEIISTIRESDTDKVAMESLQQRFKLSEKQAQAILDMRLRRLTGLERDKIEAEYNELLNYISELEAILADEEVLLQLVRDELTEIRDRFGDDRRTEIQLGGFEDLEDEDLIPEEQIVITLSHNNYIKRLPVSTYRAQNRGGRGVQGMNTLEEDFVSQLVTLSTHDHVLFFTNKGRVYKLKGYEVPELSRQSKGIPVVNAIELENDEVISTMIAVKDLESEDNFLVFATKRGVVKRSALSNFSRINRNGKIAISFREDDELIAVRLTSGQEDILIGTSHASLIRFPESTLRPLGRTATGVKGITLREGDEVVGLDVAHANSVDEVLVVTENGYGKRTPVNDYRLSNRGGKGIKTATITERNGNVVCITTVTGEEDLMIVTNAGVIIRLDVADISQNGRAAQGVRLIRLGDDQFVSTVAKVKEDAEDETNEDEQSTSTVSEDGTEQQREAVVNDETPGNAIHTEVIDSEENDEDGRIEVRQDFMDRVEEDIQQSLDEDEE
T3 sequence (P0A0K8 whole entry partner): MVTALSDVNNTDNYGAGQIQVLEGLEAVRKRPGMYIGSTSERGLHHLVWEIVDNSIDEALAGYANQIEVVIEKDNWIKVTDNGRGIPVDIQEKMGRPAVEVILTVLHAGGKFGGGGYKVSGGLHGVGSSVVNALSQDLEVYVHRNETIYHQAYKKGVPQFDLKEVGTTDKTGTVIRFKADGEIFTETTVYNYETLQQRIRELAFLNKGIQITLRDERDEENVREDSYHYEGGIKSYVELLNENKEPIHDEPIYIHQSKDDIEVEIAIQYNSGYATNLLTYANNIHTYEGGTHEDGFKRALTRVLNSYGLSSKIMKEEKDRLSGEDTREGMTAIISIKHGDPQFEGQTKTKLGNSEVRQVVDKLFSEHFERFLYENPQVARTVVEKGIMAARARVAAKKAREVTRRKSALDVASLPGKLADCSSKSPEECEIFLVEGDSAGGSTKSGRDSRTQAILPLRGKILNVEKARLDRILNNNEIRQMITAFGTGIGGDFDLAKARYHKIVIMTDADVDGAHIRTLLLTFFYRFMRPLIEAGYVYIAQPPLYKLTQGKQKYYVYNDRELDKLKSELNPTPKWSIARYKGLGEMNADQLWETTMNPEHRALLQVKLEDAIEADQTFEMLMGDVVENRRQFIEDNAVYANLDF
Procedure: as §1

[12] = tested on: E. faecium clinical isolates (n = 12) vanA (6)/vanB (6); assay: MIC, multidrug-resistant clinical isolates; assay type: cell-based; details: Enterococcus faecium; for MIC: read-out: MIC range
Procedure: as §3, §2
(§4) The results obtained using clinical isolates are reported as MIC50 and MIC90 values.

[13] = tested on: E. faecalis clinical isolates (n = 12) vanA (6)/vanB (6); assay: MIC, multidrug-resistant clinical isolates; assay type: cell-based; details: Enterococcus faecalis; for MIC: read-out: MIC range
Procedure: as §3, §2, §4

[14] = molecular target: T4, E. coli DNA gyrase (Escherichia coli, UniProt P0AES4); assay: E. coli DNA gyrase supercoiling gel assay; assay type: biochemical
T4 construct: purchased Inspiralis (Norwich, UK)
T4 sequence (P0AES4 whole entry): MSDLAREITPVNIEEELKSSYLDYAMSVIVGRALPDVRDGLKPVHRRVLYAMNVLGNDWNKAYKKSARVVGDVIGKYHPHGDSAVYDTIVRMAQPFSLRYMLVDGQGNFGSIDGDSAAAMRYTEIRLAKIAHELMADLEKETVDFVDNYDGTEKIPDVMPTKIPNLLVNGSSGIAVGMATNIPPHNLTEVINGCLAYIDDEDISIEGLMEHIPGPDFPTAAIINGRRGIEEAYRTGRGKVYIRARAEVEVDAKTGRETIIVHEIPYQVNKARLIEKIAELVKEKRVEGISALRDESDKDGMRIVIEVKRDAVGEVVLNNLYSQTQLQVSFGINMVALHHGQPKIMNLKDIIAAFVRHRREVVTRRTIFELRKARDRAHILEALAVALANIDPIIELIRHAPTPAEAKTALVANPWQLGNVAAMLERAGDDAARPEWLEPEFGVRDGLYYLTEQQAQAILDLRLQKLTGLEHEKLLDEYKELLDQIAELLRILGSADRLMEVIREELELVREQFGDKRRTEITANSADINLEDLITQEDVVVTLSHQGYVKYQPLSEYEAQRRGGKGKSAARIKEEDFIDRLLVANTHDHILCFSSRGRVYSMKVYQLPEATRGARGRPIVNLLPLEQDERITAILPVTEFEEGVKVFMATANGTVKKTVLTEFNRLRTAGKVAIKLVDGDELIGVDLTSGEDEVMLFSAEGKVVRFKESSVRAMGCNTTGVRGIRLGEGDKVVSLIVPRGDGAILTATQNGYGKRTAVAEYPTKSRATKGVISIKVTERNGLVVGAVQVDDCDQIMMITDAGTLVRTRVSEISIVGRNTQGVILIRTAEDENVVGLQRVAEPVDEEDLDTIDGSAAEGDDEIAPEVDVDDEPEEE
Procedure: as §1

[15] = tested on: N. gonorrhoeae clinical isolates (n = 38); assay: microbe, parasite or virus in culture; assay type: cell-based, Neisseria gonorrhoeae; details: for MIC50 / MIC90: Neisseria gonorrhoeae
Procedure: as §3, §2, §4

[16] = tested on: N. gonorrhoeae WHO L; assay: MIC, agar dilution; assay type: cell-based; details: Neisseria gonorrhoeae, ciprofloxacin-resistant
Procedure: as §2

[17] = tested on: N. gonorrhoeae WHO K; assay: MIC, agar dilution; assay type: cell-based; details: Neisseria gonorrhoeae, ciprofloxacin-resistant
Procedure: as §2

[18] = tested on: N. gonorrhoeae WHO N; assay: MIC, agar dilution; assay type: cell-based; details: Neisseria gonorrhoeae, ciprofloxacin-resistant
Procedure: as §2

[19] = tested on: N. gonorrhoeae ATCC 49226; assay: MIC, agar dilution; assay type: cell-based; details: Neisseria gonorrhoeae, ATCC49226; N. gonorrhoeae ATCC 49226, ciprofloxacin-susceptible
Procedure: as §2

[20] = tested on: N. gonorrhoeae ATCC 19424; assay: MIC, agar dilution; assay type: cell-based; details: Neisseria gonorrhoeae, ATCC19424; N. gonorrhoeae ATCC 19424, ciprofloxacin-susceptible
Procedure: as §2

[21] = tested on: S. aureus ATCC 29213; assay: MIC, broth microdilution; assay type: cell-based, Staphylococcus aureus; details: for MIC: Staphylococcus aureus, ATCC29213, S. aureus ATCC 29213, ciprofloxacin-susceptible
Procedure: as §2

[22] = molecular target: T5, Human Topoisomerase II (Homo sapiens, UniProt P11388); assay: Human topoisomerase II decatenation gel assay; assay type: biochemical
T5 construct: purchased Inspiralis (Norwich, UK)
T5 sequence (P11388 whole entry): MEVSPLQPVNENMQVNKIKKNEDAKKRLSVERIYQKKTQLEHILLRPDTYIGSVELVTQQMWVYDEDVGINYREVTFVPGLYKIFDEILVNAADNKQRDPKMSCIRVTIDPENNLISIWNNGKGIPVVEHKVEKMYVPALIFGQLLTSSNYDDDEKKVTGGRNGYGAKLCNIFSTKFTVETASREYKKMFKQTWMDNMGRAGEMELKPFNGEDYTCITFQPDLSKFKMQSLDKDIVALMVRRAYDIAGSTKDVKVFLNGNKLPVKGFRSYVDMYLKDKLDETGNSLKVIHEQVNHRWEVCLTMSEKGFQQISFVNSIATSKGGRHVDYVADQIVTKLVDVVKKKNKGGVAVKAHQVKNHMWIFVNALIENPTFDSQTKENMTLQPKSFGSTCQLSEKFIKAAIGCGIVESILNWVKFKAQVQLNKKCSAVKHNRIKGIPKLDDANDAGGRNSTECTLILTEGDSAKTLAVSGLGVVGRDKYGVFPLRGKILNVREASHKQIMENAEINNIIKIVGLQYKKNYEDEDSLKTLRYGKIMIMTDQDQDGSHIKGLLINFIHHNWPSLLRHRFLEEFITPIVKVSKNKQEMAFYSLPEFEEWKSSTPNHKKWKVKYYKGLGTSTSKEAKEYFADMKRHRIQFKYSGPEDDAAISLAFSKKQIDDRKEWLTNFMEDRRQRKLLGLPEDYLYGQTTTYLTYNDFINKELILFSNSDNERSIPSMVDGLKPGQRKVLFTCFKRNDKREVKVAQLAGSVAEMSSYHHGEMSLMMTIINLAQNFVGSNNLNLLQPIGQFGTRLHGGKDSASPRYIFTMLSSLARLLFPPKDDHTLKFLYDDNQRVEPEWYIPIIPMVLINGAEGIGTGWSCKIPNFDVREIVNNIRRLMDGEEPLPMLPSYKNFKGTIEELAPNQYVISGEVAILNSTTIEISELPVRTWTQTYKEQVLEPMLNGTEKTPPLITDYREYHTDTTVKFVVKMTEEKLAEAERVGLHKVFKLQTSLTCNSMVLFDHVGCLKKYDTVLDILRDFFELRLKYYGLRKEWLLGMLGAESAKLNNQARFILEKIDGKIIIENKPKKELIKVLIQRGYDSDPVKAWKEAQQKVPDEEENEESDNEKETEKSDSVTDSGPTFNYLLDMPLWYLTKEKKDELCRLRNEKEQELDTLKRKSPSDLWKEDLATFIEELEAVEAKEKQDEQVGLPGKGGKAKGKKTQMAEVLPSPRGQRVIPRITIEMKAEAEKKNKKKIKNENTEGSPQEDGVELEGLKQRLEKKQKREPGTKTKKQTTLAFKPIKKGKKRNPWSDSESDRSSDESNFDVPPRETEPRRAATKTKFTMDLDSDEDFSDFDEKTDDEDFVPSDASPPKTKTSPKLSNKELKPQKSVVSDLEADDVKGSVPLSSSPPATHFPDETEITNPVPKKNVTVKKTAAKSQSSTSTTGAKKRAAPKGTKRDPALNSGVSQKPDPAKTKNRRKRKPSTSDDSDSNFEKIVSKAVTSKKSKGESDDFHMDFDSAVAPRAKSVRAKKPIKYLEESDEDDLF
Procedure: as §1

[23] = tested on: A. baumannii clinical isolates (n = 10); assay: microbe, parasite or virus in culture; assay type: cell-based, Acinetobacter baumannii
Procedure: as §3, §2, §4

[24] = replicate Assay 1, read-out: IC50 S. aureus Topoisomerase IV decatenation, Assay 1
[25] = replicate Assay 2, read-out: IC50 S. aureus Topoisomerase IV decatenation, Assay 2
[26] = IC50 E. coli Topoisomerase IV decatenation (average), average of two replicate experiments
[27] = IC50 E. coli Topoisomerase IV decatenation, Assay 1, replicate Assay 1
[28] = IC50 E. coli Topoisomerase IV decatenation, Assay 2, replicate Assay 2
[29] = average of two replicate experiments, read-out: IC50 S. aureus Gyrase Supercoiling (average)
[30] = replicate Assay 1, read-out: IC50 S.aureus gyrase Supercoiling, Assay 1
[31] = replicate Assay 2, read-out: IC50 S.aureus gyrase Supercoiling, Assay 2
[32] = IC50 E. coli Gyrase Supercoiling (average), average of two replicate experiments
[33] = IC50 E. coli gyrase Supercoiling, Assay 1, replicate Assay 1
[34] = IC50 E. coli gyrase Supercoiling, Assay 2, replicate Assay 2
[35] = average of two replicate experiments, read-out: IC50 Human Topoisomerase II decatenation (average)
[36] = replicate Assay 1, read-out: IC50 Human Topoisomerase II (TopoII) decatenation, Assay 1
[37] = replicate Assay 2, read-out: IC50 Human Topoisomerase II (TopoII) decatenation, Assay 2

Structure (SMILES): Cl.O=c1oc2ccc(F)cc2c2[nH]c(CN[C@H]3CC[C@H](n4c(=O)ccc5ccc(F)cc54)CC3)cc12 [Compound 6, 8-fluoro-2-({[trans-4-(7-fluoro-2-oxoquinolin-1(2H)-yl)cyclohexyl]amino}methyl)[1]benzopyrano[4,3-b]pyrrol-4(1H)-one hydrochloride]
- IC50 [1]: 290 nM
- IC50 [1, 24]: 310 nM
- IC50 [1, 25]: 260 nM
- IC50 [2, 26]: 250 nM
- IC50 [2, 27]: 270 nM
- IC50 [2, 28]: 220 nM
- MIC [3]: 0.12 µg/mL
- MIC [4]: 4 µg/mL
- MIC [5]: 0.5 µg/mL
- MIC [6]: 0.25 µg/mL
- MIC [7]: 8 µg/mL
- MIC [8]: ≤ 0.06 µg/mL
- MIC [9]: 0.25 µg/mL
- MIC [10]: ≤ 0.016 µg/mL
- IC50 [11, 29]: 310 nM
- IC50 [11, 30]: 270 nM
- IC50 [11, 31]: 350 nM
- MIC50 [12]: 0.25 µg/mL
- MIC90 [12]: 0.25 µg/mL
- MIC [12]: 0.06 to 1 µg/mL
- MIC50 [13]: 0.12 µg/mL
- MIC90 [13]: 0.12 µg/mL
- MIC [13]: 0.06 to 0.12 µg/mL
- IC50 [14, 32]: 130 nM
- IC50 [14, 33]: 130 nM
- IC50 [14, 34]: 120 nM
- MIC range [15]: 0.008 to 0.06 µg/mL
- MIC50 [15]: 0.03 µg/mL
- MIC90 [15]: 0.06 µg/mL
- MIC [16]: 0.03 µg/mL
- MIC [17]: 0.06 µg/mL
- MIC [18]: 0.03 µg/mL
- MIC [19]: 0.03 µg/mL
- MIC [20]: 0.03 µg/mL
- MIC fold lower than that of ciprofloxacin ([21]; S. aureus ATCC 29213): approximately 10 fold
- MIC [21]: ≤ 0.06 µg/mL
- IC50 [22, 35]: 10100 nM and 10000 nM
- IC50 [22, 36]: 13000 nM
- IC50 [22, 37]: 7300 nM

Structure (SMILES): Cl.O=c1oc2ccc(F)cc2c2[nH]c(CN[C@H]3CC[C@H](n4c(=O)ccc5ncc(F)cc54)CC3)cc12 [Compound 3, 8-fluoro-2-({[trans-4-(7-fluoro-2-oxo-1,5-naphthyridin-1(2H)-yl)cyclohexyl]amino}methyl)[1]benzopyrano[4,3-b]pyrrol-4(1H)-one hydrochloride]
- IC50 ([1]; average of two replicate experiments, read-out: IC50 S. aureus Topoisomerase IV decatenation (average)): < 100 nM
- IC50 [1, 24]: < 100 nM
- IC50 [1, 25]: < 100 nM
- IC50 [2, 26]: < 100 nM
- IC50 [2, 27]: < 100 nM
- IC50 [2, 28]: < 100 nM
- IC50 ([2]; read-out: IC50 E. coli Topoisomerase IV decatenation (average), average of two replicate experiments): < 100 nM
- MIC [3]: 0.25 µg/mL
- MIC [4]: 4 µg/mL
- MIC [5]: 0.12 µg/mL
- MIC [6]: 0.5 µg/mL
- MIC [7]: 2 µg/mL
- MIC [8]: 0.12 µg/mL
- MIC [9]: 0.12 µg/mL
- MIC [10]: ≤ 0.016 µg/mL
- IC50 [11, 29]: < 100 nM
- IC50 [11, 30]: < 100 nM
- IC50 [11, 31]: < 100 nM
- MIC50 [12]: 0.12 µg/mL
- MIC90 [12]: 0.25 µg/mL
- MIC [12]: 0.06 to 2 µg/mL
- MIC50 [13]: 0.12 µg/mL
- MIC90 [13]: 0.12 µg/mL
- MIC [13]: 0.06 to 0.12 µg/mL
- IC50 [14, 32]: < 100 nM
- IC50 [14, 33]: < 100 nM
- IC50 [14, 34]: < 100 nM
- IC50 ([14]; read-out: IC50 E. coli Gyrase Supercoiling (average), average of two replicate experiments): < 100 nM
- MIC range [15]: 0.004 to 0.03 µg/mL
- MIC50 [15]: 0.016 µg/mL
- MIC90 [15]: 0.03 µg/mL
- MIC range [23]: ≤0.06 to 0.12 µg/mL
- MIC50 ([23]; Acinetobacter baumannii): ≤ 0.06 µg/mL
- MIC90 ([23]; Acinetobacter baumannii): 0.12 µg/mL
- MIC [16]: 0.016 µg/mL
- MIC [17]: 0.016 µg/mL
- MIC [18]: 0.016 µg/mL
- MIC [19]: 0.016 µg/mL
- MIC [20]: ≤ 0.06 µg/mL
- MIC [21]: 0.25 µg/mL
- IC50 [22, 35]: 56000 nM
- IC50 [22, 36]: 46000 nM
- IC50 [22, 37]: 66000 nM
